The text below walks through data of patent US11439713B2, “Method for creating a renal injury model to screen molecules for the treatment of renal injury” (BAYER AKTIENGESELLSCHAFT, priority 2017, dated 2022).

Entries after “also recorded” stand apart in the source; their conditions may differ.

Test [1] relates to C57Bl/6 mice. Kind of test: AGISHA model with AngII as injury inducer (ACR in urine). In kind it is in vivo. From the text:
Five groups with 10-12 mice per group (C57Bl/6, Charles River Laboratories, 6-7 weeks old) were set for one experiment. After delivery, animals remained in a temperature- and light-controlled room with standardized mouse chow and water ad libitum for a one week acclimatization period, following guidelines of local governmental institutions (LANUV Germany). The groups were divided as follows (see FIG. 1): • 1. Control group without AngII bolus injection, but with control saline and additional (oral) administration of drug vehicle (10% ethanol, 40% solutol, 50% water or saline). • 2. AngII group, treated with AngII in normal saline, and drug vehicle. AngII administration occurred in two bolus injections (i.v.+s.c.) of 10 μg (5 μg i.v.+5 μg s.c.), 16 μg (8 μg i.v.+8 μg s.c.) and 20 μg (10 μg i.v.+10 μg s.c.) per mouse, where the first bolus was injected intravenously and the second bolus subcutaneously. The drug vehicle was administered orally.
3. Candidate groups 3 and 4: AngII injection and additional treatment with the investigated drug/drugs. For substance testing, drugs or appropriated vehicles were administered orally, via i.v., s.c., or i.p. Administration occurred prior to or after AngII-injection. For example, investigated drug/drugs were given orally 30 minutes before the induction of the injury. • 4. Group 5 is the positive control group Animals were injected with AngII and treated orally with Losartan 30 mg/kg. Losartan is an AngII receptor blocker AT1 (Pieter B M et al, Pharma. Rev., 1993, Kang P M et al, Progress in Cardiology, 1994).
After AngII injection animals were placed in metabolic cages (Technoplast, Italy) for urine collection for up to 4 hours. At the end of the experiment the urine was analyzed to quantify the ACR. More specifically, the collected urine was analyzed using an automatic analyzer for urinary albumin as well as urinary creatinine (Coban® Integra 400, Roche, Basel, SUI) or using the Mouse albumin ELISA kit (ABCAM, Cambridge, UK). […] The AGISHA model was performed in 3 identical cycles with a one-week break for recovery.
Negative and positive control experiment. To confirm the findings shown in FIG. 2-4, the mode of action in AGISHA was investigated. In the following experiment, three of the animal groups were pre-treated with three different drugs by oral application 30 minutes before administration of injury inducer (see FIG. 5). • 1) Enalapril 10 mg/kg, an angiotensin-converting enzyme (ACE) inhibitor, is standard of care for high blood pressure. It was used as positive modulator control 1 of the renin-angiotensin system (RAS) in the AGISHA model. • 2) Losartan potassium, 30 mg/kg, angiotensin II type I receptor (AT1) antagonist, standard of care for high blood pressure (Kang et al, 1994; Sica D A et al, Clin Parmacokinet., 2005) was used as positive modulator control 2 of the RAS system in the AGISHA model. • 3) Tivozanib, 3 mg/kg, vascular endothelial grow factor receptor tyrosine kinase inhibitor (Campas C et al, Drugs Fut., 2009) was used as negative modulator of the RAS system during AGISHA model. […]
The experiment was performed as described in example 5, except that the sGC stimulator 5-cyclopropyl-2-[1-(2-fluorobenzyl)-1H-pyrazolo[3,4-b]pyridin-3-yl]pyrimidin-4-amine was used for treatment. […] Losartan (30 mg/kg) was used as positive control.

Test [2] has as its system rat model of hypertension. The settings on record: Hoffmann L S et al. 2015; cited from earlier work.
In test [3] the test system is C57Bl/6 mice. The experiment in a line: AGISHA model with Vasopressin (AVP) as injury inducer (ACR in urine). In kind it is in vivo. Conditions: AVP 10 μg i.v.+10 μg s.c.; vs NaCl.
Another test relates to mice. Kind of test: GFR-based model with AVP and Sinestrin-FITC. In kind it is in vivo. The settings on record: AVP 35 μg (15 μg i.v. + 20 μg second bolus); vs control group. Here is the method:
A similar setup (FIG. 23) was used with AVP (Sigma-Aldrich, Mo.) at a dose of 35 μg, i.e. using a first bolus with 15 μg AVP, injected i.v. in combination with Sinestrin-FITC 150 mg/kg (50 ul+50 ul) and using a second bolus of 20 μg AVP, 100 uL, injected i.v. As before GFR, was decreased by AVP compared with the control group.

Test [4] deals with Male BL6/J mice. Kind of test: GFBI test model with Sema3a as injury inducer (half-life of Ficoll-FITC). It counts as in vivo. The settings on record: Sema3a 0.5 μg/g bodyweight i.v., vs BSA control. The procedure:
(§1) AngII induced GBM damage is a fast and stable trigger method to mimic human hypertensive glomerular disease or its complications. However, a non-hypertensive trigger was required to study the non-hypertensive kidney pathologies. […] For the example at hand, other than described by Tapia R et al, Sema3a was injected i.v. and ACR and GFB integrity were evaluated in the following setup with the following experimental groups. • 1) Male BL6/J mice were injected via tail vein with a mix of Ficoll-FITC 150 mg/kg and BSA (0.5 μg/g of BW), in a maximal volume of 100 μl. • 2) Male BL6/J mice were injected via tail vein with a mix of Ficoll-FITC 150 mg/kg and Sema3a (R&D System, USA), 0.5 μg/g of BW, in a maximal volume of 100 μl.
(§2) The animals went under transcutaneous fluorescent measurement for 2 h, as described before. The GFB integrity test was able to detect the loss of fluorescent dye due to podocyte effacement as well as the increased ACR in the urine. […] This peptide is able to disrupt the ability of the Sema3A to induce the decay of the fluorescent dye. The sensitivity of the GFBI test was evaluated as follows and subjects were pre-treated according to the following groups: • 1. […]

In test [5] the test system is Male BL6/J mice. The experiment in a line: ACR after Sema3a bolus injection. It counts as in vivo. The settings on record: Sema3a 0.5 μg/g bodyweight i.v.; vs BSA control. Here is the method: as §1, §2
The conditions of test [6]: Tapia R et al, KI, 2008; cited from earlier work.

Regarding `Nc1nc(-c2nn(Cc3ccccc3F)c3ncccc23)ncc1C1CC1` [5-cyclopropyl-2-[1-(2-fluorobenzyl)-1H-pyrazolo[3,4-b]pyridin-3-yl]pyrimidin-4-amine], the “Reduction of ACR” value in the test with C57Bl/6 mice [1] (1 mg/kg orally prior to AngII) was 54%; with C57Bl/6 mice [1] (3 mg/kg orally prior to AngII (sGC stimulator experiment)), 62%. Moreover, the entries for the “AngII induced ACR, mean±SD” value with C57Bl/6 mice [1] (1 mg/kg orally prior to AngII 10 μg i.v.+10 μg s.c.) and in the test on C57Bl/6 mice [1] (3 mg/kg orally prior to AngII 10 μg i.v.+10 μg s.c. (sGC stimulator experiment)) were 50 ± 49 µg/mg and 42 ± 35 µg/mg, respectively. Besides, the “Effect on angiotensin II-induced cardiovascular remodeling” value in test [2] was “ameliorates angiotensin II-induced cardiovascular remodeling”.
For the molecule `NC(=O)CC[C@@H]1NC(=O)[C@H](Cc2ccccc2)NC(=O)[C@H](Cc2ccc(O)cc2)NC(=O)[C@@H](N)CSSC[C@@H](C(=O)N2CCC[C@H]2C(=O)N[C@@H](CCCN=C(N)N)C(=O)NCC(N)=O)NC(=O)[C@H](CC(N)=O)NC1=O` [AVP], the “ACR in urine collected for 4 hours after AVP bolus injection” value in the test on C57Bl/6 mice [3] is given as “significant increase of ACR”. In addition, in the test on mice, the “GFR 2 hrs after AVP bolus injection” value was “decreased; also recorded: significant decrease in GFR”.

B1: Sema3a: recombinant mouse Semaphorin-3A protein (R&D System), non-hypertensive injury inducer (protein, UniProt O08665 21-772, looked up)
Semaphorin-3A: NYANGKNNVPRLKLSYKEMLESNNVITFNGLANSSSYHTFLLDEERSRLYVGAKDHIFSFNLVNIKDFQKIVWPVSYTRRDECKWAGKDILKECANFIKVLEAYNQTHLYACGTGAFHPICTYIEVGHHPEDNIFKLQDSHFENGRGKSPYDPKLLTASLLIDGELYSGTAADFMGRDFAIFRTLGHHHPIRTEQHDSRWLNDPRFISAHLIPESDNPEDDKVYFFFRENAIDGEHSGKATHARIGQICKNDFGGHRSLVNKWTTFLKARLICSVPGPNGIDTHFDELQDVFLMNSKDPKNPIVYGVFTTSSNIFKGSAVCMYSMSDVRRVFLGPYAHRDGPNYQWVPYQGRVPYPRPGTCPSKTFGGFDSTKDLPDDVITFARSHPAMYNPVFPINNRPIMIKTDVNYQFTQIVVDRVDAEDGQYDVMFIGTDVGTVLKVVSVPKETWHDLEEILLEEMTVFREPTTISAMELSTKQQQLYIGSTAGVAQLPLHRCDIYGKACAECCLARDPYCAWDGSSCSRYFPTAKRRTRRQDIRNGDPLTHCSDLQHHDNHHGPSLEERIIYGVENSSTFLECSPKSQRALVYWQFQRRNEDRKEEIRMGDHIIRTEQGLLLRSLQKKDSGNYLCHAVEHGFMQTLLKVTLEVIDTEHLEELLHKDDDGDGSKIKEMSSSMTPSQKVWYRDFMQLINHPNLNTMDEFCEQVWKRDRKQRRQRPGHSQGSSNKWKHMQESKKGRNRRTHEFERAPRSV
Turning to B1, the “Half-life of fluorescent molecule Ficoll-FITC 2 hrs after Sema3a bolus injection” value with Male BL6/J mice [4] was “significantly decreased half-life”; in the test on Male BL6/J mice [4] (listed as Sema3A) it was “significant decrease in half-life”. In addition, in the test on Male BL6/J mice [5], the “ACR after Sema3a bolus injection” value is given as “significantly increased ACR”. Also, the “ACR after injection of recombinant Sema3a” value in test [6] is listed as “robust, transient ACR within 4-24 h”.
